These results are taken from US10329542B2, “HBV RNAse H purification and enzyme inhibitors” (Saint Louis University, priority 2012, dated 2019).

For orientation: IC50 means the point on the concentration scale where inhibition reaches its midpoint. A word on the CC50: it is the concentration at which the toxic effect on the cells reaches its halfway point. Low readings indicate harm at low concentration, high ones better tolerance by the cells.

For one series, the target named is HIV-1 RNAseH (Human immunodeficiency virus type 1 group M subtype B, UniProt P04585). The note with it: read-out: IC50 against the HIV RNAseH; cited from earlier work.
The next series deals with HepG2 cells. Nature of the series: MTS cytotoxicity assay in HepG2 cells. Conditions: four days. The class given is cell-based, human. As for the experimental part:
Toxicity of βTJ in Huh7 cells was determined with 3-(4,5-dimethylthiazol-2-yl)-5-β-carboxymethoxyphenyl)-2-(4-sulfophenyl)-2H-tetrazolium (MTS) assays that measures mitochondrial dysfunction employing the Cell Titre 96 aqueous nonradioactive cell proliferation assay (Promega), and with the CytoTox-Glo assay (Promega) that reflects cellular integrity. Huh7 and HepG2 cells (1×10^4) were plated in 96-well tissue culture plates, medium containing βTJ at the indicated concentrations was added the next day, the medium was replaced with fresh medium containing βTJ after two days, and after four days the MTS or CytoTox-Glo assays were conducted according to the manufacturer's instructions.
On the technique in general: Formazan colour is commonly taken as a measure of viable cells.

Series [1] deals with T1, HBV genotype D RNAseH (HRHPL) (Hepatitis B virus genotype D subtype ayw, UniProt P03156, INS679M).
T1 construct: HRHPL contains HBV genotype D (Genbank V01460) polymerase residues 684-845; made in house; host or cells: E. coli BL21 codon+
Conditions: Tavis et al., 2013; read-out: IC50 against the HBV RNAseH, previously reported; cited from earlier work.

A further series has as its system HBV genotype A. Conditions: 10 μM; Tavis et al., 2013; cited from earlier work.

The structures appear in SMILES notation.

T1 sequence (P03156 680-832, added parts left off, stated change not applied): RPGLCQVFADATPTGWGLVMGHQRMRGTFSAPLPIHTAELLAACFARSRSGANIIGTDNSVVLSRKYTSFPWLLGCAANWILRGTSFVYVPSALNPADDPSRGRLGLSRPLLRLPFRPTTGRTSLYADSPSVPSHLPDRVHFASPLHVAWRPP

Consider `CC(C)c1ccc(O)c(=O)c(O)c1` [Compound 46, beta-thujaplicinol], for which the IC50 on HIV-1 RNAseH was 0.2 to 0.3 µM. Moreover, the CC50 in the series with HepG2 cells turned out to be 16.7 ± 3.7 µM.

As to `NCc1ccc(-c2ccc(Cc3cc(=O)n(O)c4ncccc34)cc2)cc1` [Compound 12, napthyridinone], in series [1], the IC50 is 2.5 µM. Besides, the “Block of viral replication in Huh7 cells” value in the series on HBV genotype A was around 93%.
